Experimental data as given in patent US8247211B2, “Glycopeptide antibiotics” (American Cyanamid Company, priority 2001, dated 2012).
≈ marks a conversion by molar mass, not a printed value.

What was measured:
Test in all cases: In vitro antibacterial evaluation: minimum inhibitory concentration (MIC), broth dilution method
Type in all cases: cell-based
[1] = tested on: Staphylococcus sp.; conditions: broth dilution, 18 hours at 35° C.
Protocol: (§1) The minimum inhibitory concentration (MIC), the lowest concentration of the antibiotic which inhibits growth of the test organism, is determined by the broth dilution method using Muller-Hinton II […] (Baltimore Biological Laboratories) following the recommendations of the National Committee for Clinical Laboratory Standards [Methods for dilution antimicrobial susceptibility tests for bacteria that grow aerobically, approved standard M7-A2, National Committee for Clinical Laboratory Standards, Villanova, Pa].
(§2) An inoculum level of 5×10^5 CFU/mL, and a range of antibiotic concentrations (64-0.06 μg/mL) is used. […] The test organisms include a spectrum of Gram-positive bacteria comprised of Staphylococcus sp., Streptococcus sp. and Enterococcus sp. These organisms include recent clinical isolates that are resistant to methicillin, penicillin and/or vancomycin.

[2] = tested on: Escherichia coli; conditions: for MIC Escherichia coli (ATCC 25922): strain ATCC 25922; for MIC Escherichia coli (GC 4559): strain GC 4559; for MIC Escherichi coli (GC 4560): strain GC 4560
Protocol: as §1, §2

[3] = tested on: Streptococcus sp.
Protocol: as §1, §2

[4] = tested on: Enterococcus sp.
Protocol: as §1, §2

[5] = broth dilution, inoculum 5×10^5 CFU/mL, 18 hours at 35° C.

## COc1cc(OC)cc(C2OCC3OC(OC4C(CO)OC(Oc5ccc(CC6NC(=O)C(C(C)c7ccccc7)NC(=O)CNC(=O)C(CO)NC(=O)C(C(O)C7CNC(=N)N7C7OC(CO)C(O)C(O)C7O)NC(=O)C(C(O)C7CNC(=N)N7)NC6=O)cc5)C(O)C4O)C(O)C(O)C3O2)c1 (stereo not drawn) [Example 150, Cyclo[glycyl-β-methylphenylalanyl-O-[4-O-[4,6-O-(3,5-dimethoxybenzylidene)hexopyranosyl]-hexopyranosyl]tyrosyl-3-(2-iminoimidazolidin-4-yl)seryl-3-(3-hexopyranosyl-2-iminoimidazolidin-4-yl)serylseryl]]
[1]; 5×10^5 CFU/mL
  MIC Coagulase Negative Staphylococcus (GC 4547): 2 µg/mL (≈ 1.39 µM)
  MIC Coagulase Negative Staphylococcus (GC 4548): 1 µg/mL (≈ 0.693 µM)
  MIC Coagulase Negative Staphylococcus (GC 4549): 1 µg/mL (≈ 0.693 µM)
  MIC Coagulase Negative Staphylococcus (GC 4551): 2 µg/mL (≈ 1.39 µM)
  MIC Coagulase Negative Staphylococcus (GC 6257): 1 µg/mL (≈ 0.693 µM)
  MIC Staphylococcus aureus (ATCC 29213): 2 µg/mL (≈ 1.39 µM)
  MIC Staphylococcus aureus (GC 1131): 4 µg/mL (≈ 2.77 µM)
  MIC Staphylococcus aureus (GC 3051): 2 µg/mL (≈ 1.39 µM)
  MIC Staphylococcus aureus (GC 3053): 8 µg/mL (≈ 5.54 µM)
  MIC Staphylococcus aureus (GC 4541): 2 µg/mL (≈ 1.39 µM)
  MIC Staphylococcus aureus (GC 4542): 2 µg/mL (≈ 1.39 µM)
  MIC Staphylococcus aureus (GC 4544): 2 µg/mL (≈ 1.39 µM)
  MIC Staphylococcus aureus (GC 4545): 2 µg/mL (≈ 1.39 µM)
  MIC Staphylococcus aureus-SMITH (GC 4543): 2 µg/mL (≈ 1.39 µM)
  MIC Staphylococcus haemolyticus (GC 4546): 1 µg/mL (≈ 0.693 µM)
[1]; strain ATCC 29213
  MIC Staphylococcus aureus (ATCC 29213): 2 µg/mL (≈ 1.39 µM)
[1]; strain GC 1131
  MIC Staphylococcus aureus (GC 1131): 4 µg/mL (≈ 2.77 µM)
[1]; strain GC 3051
  MIC Staphylococcus aureus (GC 3051): 2 µg/mL (≈ 1.39 µM)
[1]; strain GC 3053
  MIC Staphylococcus aureus (GC 3053): 8 µg/mL (≈ 5.54 µM)
[1]; strain GC 4541
  MIC Staphylococcus aureus (GC 4541): 2 µg/mL (≈ 1.39 µM)
[1]; strain GC 4542
  MIC Staphylococcus aureus (GC 4542): 2 µg/mL (≈ 1.39 µM)
[1]; strain GC 4543
  MIC Staphylococcus aureus-SMITH (GC 4543): 2 µg/mL (≈ 1.39 µM)
[1]; strain GC 4544
  MIC Staphylococcus aureus (GC 4544): 2 µg/mL (≈ 1.39 µM)
[1]; strain GC 4545
  MIC Staphylococcus aureus (GC 4545): 2 µg/mL (≈ 1.39 µM)
[1]; strain GC 4546
  MIC Staphylococcus haemolyticus (GC 4546): 1 µg/mL (≈ 0.693 µM)
[1]; strain GC 4547
  MIC Coagulase Negative Staphylococcus (GC 4547): 2 µg/mL (≈ 1.39 µM)
[1]; strain GC 4548
  MIC Coagulase Negative Staphylococcus (GC 4548): 1 µg/mL (≈ 0.693 µM)
[1]; strain GC 4549
  MIC Coagulase Negative Staphylococcus (GC 4549): 1 µg/mL (≈ 0.693 µM)
[1]; strain GC 4551
  MIC Coagulase Negative Staphylococcus (GC 4551): 2 µg/mL (≈ 1.39 µM)
[1]; strain GC 6257
  MIC Coagulase Negative Staphylococcus (GC 6257): 1 µg/mL (≈ 0.693 µM)
[2]
  MIC Escherichia coli (ATCC 25922): >64 µg/mL
  MIC Escherichia coli (GC 4559): 32 µg/mL (≈ 22.2 µM)
  MIC Escherichi coli (GC 4560): 1 µg/mL (≈ 0.693 µM)
[3]; strain ATCC 6301
  MIC Streptococcus pneumoniae (ATCC 6301): 0.25 µg/mL (≈ 0.173 µM)
[3]; strain GC 1894
  MIC Streptococcus pneumoniae (GC 1894): 0.12 µg/mL (≈ 0.0831 µM)
[3]; strain GC 4563
  MIC Streptococcus pyogenes (GC 4563): 0.5 µg/mL (≈ 0.346 µM)
[3]; strain GC 4564
  MIC Streptococcus agalactiae (GC 4564): 1 µg/mL (≈ 0.693 µM)
[3]; strain GC 4565
  MIC Streptococcus pneumoniae (GC 4565): 0.25 µg/mL (≈ 0.173 µM)
[4]; strain ATCC 29212
  MIC Enterococcus faecalis (ATCC 29212): 8 µg/mL (≈ 5.54 µM)
[4]; strain GC 2242
  MIC Enterococcus faecalis (GC 2242): 4 µg/mL (≈ 2.77 µM)
[4]; strain GC 2243
  MIC Enterococcus faecium (GC 2243): 8 µg/mL (≈ 5.54 µM)
[4]; strain GC 2691
  MIC Enterococcus faecalis (GC 2691): 4 µg/mL (≈ 2.77 µM)
[4]; strain GC 3059
  MIC Enterococcus faecalis (GC 3059): 8 µg/mL (≈ 5.54 µM)
[4]; strain GC 4552
  MIC Enterococcus faecalis (GC 4552): 8 µg/mL (≈ 5.54 µM)
[4]; strain GC 4553
  MIC Enterococcus faecalis (GC 4553): 8 µg/mL (≈ 5.54 µM)
[4]; strain GC 4554
  MIC Enterococcus faecalis (GC 4554): 8 µg/mL (≈ 5.54 µM)
[4]; strain GC 4556
  MIC Enterococcus faecium (GC 4556): 8 µg/mL (≈ 5.54 µM)
[4]; strain GC 4557
  MIC Enterococcus faecium (GC 4557): 4 µg/mL (≈ 2.77 µM)
[4]; strain GC 4558
  MIC Enterococcus avium (GC 4558): 8 µg/mL (≈ 5.54 µM)
[4]; strain GC 6189
  MIC Enterococcus faecalis (GC 6189): 8 µg/mL (≈ 5.54 µM)

## CC(c1ccccc1)C1NC(=O)CNC(=O)C(CO)NC(=O)C(C(O)C2CNC(=N)N2C2OC(CO)C(O)C(O)C2O)NC(=O)C(C(O)C2CNC(=N)N2)NC(=O)C(Cc2ccc(OC3OC(CO)C(OC4OC5COC(c6cccc(Oc7ccccc7)c6)OC5C(O)C4O)C(O)C3O)cc2)NC1=O (stereo not drawn) [Example 170, Cyclo[glycyl-β-methylphenylalanyl-O-[4-O-[4,6-O-(3-phenoxybenzylidene)hexopyranosyl]-hexopyranosyl]tyrosyl-3-(2-iminoimidazoliclin-4-yl)seryl-3-(3-hexopyranosyl-2-iminoimidazolidin-4-yl)serylseryl]]
[1]; 5×10^5 CFU/mL
  MIC Coagulase Negative Staphylococcus (GC 4547): 4 µg/mL (≈ 2.71 µM)
  MIC Coagulase Negative Staphylococcus (GC 4548): 1 µg/mL (≈ 0.678 µM)
  MIC Coagulase Negative Staphylococcus (GC 4549): 2 µg/mL (≈ 1.36 µM)
  MIC Coagulase Negative Staphylococcus (GC 4551): 1 µg/mL (≈ 0.678 µM)
  MIC Coagulase Negative Staphylococcus (GC 6257): 1 µg/mL (≈ 0.678 µM)
  MIC Staphylococcus aureus (ATCC 29213): 4 µg/mL (≈ 2.71 µM)
  MIC Staphylococcus aureus (GC 1131): 4 µg/mL (≈ 2.71 µM)
  MIC Staphylococcus aureus (GC 3051): 4 µg/mL (≈ 2.71 µM)
  MIC Staphylococcus aureus (GC 3053): 1 µg/mL (≈ 0.678 µM)
  MIC Staphylococcus aureus (GC 4541): 2 µg/mL (≈ 1.36 µM)
  MIC Staphylococcus aureus (GC 4542): 4 µg/mL (≈ 2.71 µM)
  MIC Staphylococcus aureus (GC 4544): 2 µg/mL (≈ 1.36 µM)
  MIC Staphylococcus aureus (GC 4545): 4 µg/mL (≈ 2.71 µM)
  MIC Staphylococcus aureus-SMITH (GC 4543): 4 µg/mL (≈ 2.71 µM)
  MIC Staphylococcus haemolyticus (GC 4546): 8 µg/mL (≈ 5.42 µM)
[1]; strain ATCC 29213
  MIC Staphylococcus aureus (ATCC 29213): 4 µg/mL (≈ 2.71 µM)
[1]; strain GC 1131
  MIC Staphylococcus aureus (GC 1131): 4 µg/mL (≈ 2.71 µM)
[1]; strain GC 3051
  MIC Staphylococcus aureus (GC 3051): 4 µg/mL (≈ 2.71 µM)
[1]; strain GC 3053
  MIC Staphylococcus aureus (GC 3053): 1 µg/mL (≈ 0.678 µM)
[1]; strain GC 4541
  MIC Staphylococcus aureus (GC 4541): 2 µg/mL (≈ 1.36 µM)
[1]; strain GC 4542
  MIC Staphylococcus aureus (GC 4542): 4 µg/mL (≈ 2.71 µM)
[1]; strain GC 4544
  MIC Staphylococcus aureus (GC 4544): 2 µg/mL (≈ 1.36 µM)
[1]; strain GC 4545
  MIC Staphylococcus aureus (GC 4545): 4 µg/mL (≈ 2.71 µM)
[2]
  MIC Escherichia coli (ATCC 25922): >64 µg/mL
  MIC Escherichia coli (GC 4559): >64 µg/mL
  MIC Escherichi coli (GC 4560): 4 µg/mL (≈ 2.71 µM)
[3]; [5]
  MIC Streptococcus agalactiae (GC 4564): <0.06 µg/mL
  MIC Streptococcus pneumoniae (ATCC 6301): <0.06 µg/mL
  MIC Streptococcus pneumoniae (GC 1894): <0.06 µg/mL
  MIC Streptococcus pneumoniae (GC 4565): <0.06 µg/mL
  MIC Streptococcus pyogenes (GC 4563): <0.06 µg/mL
[3]; strain ATCC 6301
  MIC Streptococcus pneumoniae (ATCC 6301): <0.06 µg/mL
[3]; strain GC 1894
  MIC Streptococcus pneumoniae (GC 1894): <0.06 µg/mL
[3]; strain GC 4563
  MIC Streptococcus pyogenes (GC 4563): <0.06 µg/mL
[3]; strain GC 4564
  MIC Streptococcus agalactiae (GC 4564): <0.06 µg/mL
[3]; strain GC 4565
  MIC Streptococcus pneumoniae (GC 4565): <0.06 µg/mL
[4]; [5]
  MIC Enterococcus avium (GC 4558): 4 µg/mL (≈ 2.71 µM)
  MIC Enterococcus faecalis (ATCC 29212): 4 µg/mL (≈ 2.71 µM)
  MIC Enterococcus faecalis (GC 2242): 4 µg/mL (≈ 2.71 µM)
  MIC Enterococcus faecalis (GC 2691): 4 µg/mL (≈ 2.71 µM)
  MIC Enterococcus faecalis (GC 3059): 4 µg/mL (≈ 2.71 µM)
  MIC Enterococcus faecalis (GC 4552): 4 µg/mL (≈ 2.71 µM)
  MIC Enterococcus faecalis (GC 4553): 4 µg/mL (≈ 2.71 µM)
  MIC Enterococcus faecalis (GC 4554): 2 µg/mL (≈ 1.36 µM)
  MIC Enterococcus faecalis (GC 6189): 4 µg/mL (≈ 2.71 µM)
  MIC Enterococcus faecium (GC 2243): 4 µg/mL (≈ 2.71 µM)
  MIC Enterococcus faecium (GC 4556): 4 µg/mL (≈ 2.71 µM)
  MIC Enterococcus faecium (GC 4557): 4 µg/mL (≈ 2.71 µM)
[4]; strain ATCC 29212
  MIC Enterococcus faecalis (ATCC 29212): 4 µg/mL (≈ 2.71 µM)
[4]; strain GC 2242
  MIC Enterococcus faecalis (GC 2242): 4 µg/mL (≈ 2.71 µM)
[4]; strain GC 2243
  MIC Enterococcus faecium (GC 2243): 4 µg/mL (≈ 2.71 µM)
[4]; strain GC 2691
  MIC Enterococcus faecalis (GC 2691): 4 µg/mL (≈ 2.71 µM)
[4]; strain GC 3059
  MIC Enterococcus faecalis (GC 3059): 4 µg/mL (≈ 2.71 µM)
[4]; strain GC 4552
  MIC Enterococcus faecalis (GC 4552): 4 µg/mL (≈ 2.71 µM)
[4]; strain GC 4553
  MIC Enterococcus faecalis (GC 4553): 4 µg/mL (≈ 2.71 µM)
[4]; strain GC 4554
  MIC Enterococcus faecalis (GC 4554): 2 µg/mL (≈ 1.36 µM)
[4]; strain GC 4556
  MIC Enterococcus faecium (GC 4556): 4 µg/mL (≈ 2.71 µM)
[4]; strain GC 4557
  MIC Enterococcus faecium (GC 4557): 4 µg/mL (≈ 2.71 µM)
[4]; strain GC 4558
  MIC Enterococcus avium (GC 4558): 4 µg/mL (≈ 2.71 µM)
[4]; strain GC 6189
  MIC Enterococcus faecalis (GC 6189): 4 µg/mL (≈ 2.71 µM)
